The source of these data is patent publication US7435837B2, “Dihydrobenzofuranyl alkanamine derivatives and methods for using same” (Wyeth, priority 2003, dated 2008).

The target in experiment [1] is T1, human 5-hydroxytryptamine-2C (h5-HT2C) receptor (Homo sapiens, UniProt P28335).
T1 construct: expressed in transfected cells; host or cells: CHO (Chinese Hamster Ovary) cells; membranes
T1 sequence (P28335 33-458): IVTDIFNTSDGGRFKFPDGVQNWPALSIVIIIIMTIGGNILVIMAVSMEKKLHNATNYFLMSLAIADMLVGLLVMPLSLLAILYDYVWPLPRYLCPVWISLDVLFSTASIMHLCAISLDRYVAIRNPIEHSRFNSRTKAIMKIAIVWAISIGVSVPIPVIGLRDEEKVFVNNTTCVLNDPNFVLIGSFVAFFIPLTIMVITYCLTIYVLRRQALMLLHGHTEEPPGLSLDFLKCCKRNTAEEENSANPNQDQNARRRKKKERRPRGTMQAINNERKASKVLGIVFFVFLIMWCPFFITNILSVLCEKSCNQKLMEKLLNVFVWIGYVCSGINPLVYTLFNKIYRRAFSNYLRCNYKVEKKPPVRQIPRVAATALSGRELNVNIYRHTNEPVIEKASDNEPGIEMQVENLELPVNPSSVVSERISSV
Put plainly: [125I]DOI binding to membranes of CHO cells expressing the human 5-HT2C receptor. The settings on record: [125I]DOI radioligand, CHO cell membranes, room temperature 60 min; read-out: 5-HT2C Affinity Ki.

Another experiment has as its target T2, human 5-HT2C receptor (Homo sapiens, UniProt P28335).
T2 sequence (P28335 33-458): T1 sequence (P28335 33-458)
In words: 5-HT2C receptor-stimulated calcium mobilization (FLIPR) in CHO cells.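 As to all read-outs here: Fluo-3-AM fluorescence read on FLIPR every 1 s, agonist added after 10 baseline reads, response taken as peak minus lowest raw fluorescence count.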 Format: cell-based. To be noted: for Emax: CHO, read-out: 5-HT2C Function Emax (%); for Emax / 5-HT2C Function Emax (%): percentage of the response observed with a maximally effective concentration of 5-HT; for EC50: calcium mobilization, CHO cells stably expressing human 5-HT2C, read-out: 5-HT2C Function EC50. For orientation: A change in cytosolic calcium serves as a functional read-out for many receptors and channels.

Usually Ki stands for a measure of affinity in units of concentration, obtained from inhibition or displacement. What is called Emax is the maximal effect, on the per cent scale that the assay sets. As usually defined, the EC50 is the concentration giving half of the maximal effect. Regarding `Cc1ccccc1-c1ccc(F)c2c1OC(CN)C2` (racemic) [Example 99, (±)-1-[4-fluoro-7-(2-methylphenyl)-2,3-dihydro-1-benzofuran-2-yl]methanamine], the Ki in experiment [1] stood at 21 nM. Further, on human 5-HT2C receptor, the maximal response (Emax) was determined as 60% and the half-maximal effective concentration (EC50) came to 838 nM.

As for `Cc1cccc(-c2cc(F)cc3c2OC(CN)C3)c1` (racemic) [Example 198, (±)-{[5-fluoro-7-(3-methylphenyl)-2,3-dihydro-1-benzofuran-2-yl]methyl}amine], in experiment [1], the inhibition constant Ki amounted to 17 nM. Moreover, at human 5-HT2C receptor, the Emax came out at 60% and the EC50 stood at 903 nM.

As to `CNCC1Cc2cc(F)cc(-c3cc(C)ccc3C)c2O1` (racemic) [Example 452, (±)-{[7-(2,5-dimethylphenyl)-5-fluoro-2,3-dihydro-1-benzofuran-2-yl]methyl}methylamine], in experiment [1], the Ki was found to be 24 nM. In addition, on human 5-HT2C receptor, the maximal response (Emax) came to 80% and the EC50 was determined as 153 nM.

With `NCC1Cc2cc(F)cc(-c3cccnc3)c2O1` (single isomer, unassigned; (+)) [Example 208, (+)-{[5-fluoro-7-pyridin-3-yl-2,3-dihydro-1-benzofuran-2-yl]methyl}amine], the Ki in experiment [1] was found to be 1.9 nM. Further, on human 5-HT2C receptor, the EC50 was determined as 0.36 nM and the “5-HT2C Function Emax (%)” value worked out at 100%.

As for `NCC1Cc2cccc(Cc3ccccc3)c2O1` (single isomer, unassigned; (+)) [Example 16, (+)-1-(7-benzyl-2,3-dihydro-1-benzofuran-2-yl)methanamine], the Ki in experiment [1] was 274 nM. At human 5-HT2C receptor, the Emax was determined as 65% and the 50% effective concentration (EC50) came to 451 nM.

For `NCC1Cc2cccc(-c3cccc(Cl)c3)c2O1` (single isomer, unassigned; (+)) [Example 66, (+)-1-[7-(3-chlorophenyl)-2,3-dihydro-1-benzofuran-2-yl]methanamine], the Ki in experiment [1] is 5 nM. Moreover, on human 5-HT2C receptor, the EC50 was 250 nM and the “5-HT2C Function Emax (%)” value is recorded as 100%.

In the case of `NCC1Cc2cc(F)cc(-c3ccsc3)c2O1` (racemic) [Example 203, (±)-[(5-fluoro-7-thien-3-yl-2,3-dihydro-1-benzofuran-2-yl)methyl]amine], the inhibition constant Ki in experiment [1] turned out to be 8.5 nM. In addition, at human 5-HT2C receptor, the maximal effect (Emax) stood at 80% and the EC50 amounted to 187 nM.

As to `CNCC1Cc2cc(OC)cc(-c3ccc(F)cc3F)c2O1` (racemic) [Example 497, (±)-{[7-(2,4-difluorophenyl)-5-methoxy-2,3-dihydro-1-benzofuran-2-yl]methyl}methylamine], in experiment [1], the inhibitory constant (Ki) came to 37 nM. Also, on human 5-HT2C receptor, the maximal effect (Emax) was found to be 70% and the EC50 is 315 nM.

Turning to `Cc1ccc(-c2cc(C)cc3c2OC(CN)C3)cc1` (racemic) [Example 290, (±)-{[7-(4-methylphenyl)-5-methyl-2,3-dihydro-1-benzofuran-2-yl]methyl}amine], the Ki in experiment [1] amounted to 1.7 nM. On human 5-HT2C receptor, the maximal response (Emax) is 80% and the concentration giving a half-maximal response (EC50) came out at 58 nM.

Turning to `NCC1Cc2cccc(-c3ccc(F)cc3F)c2O1` (racemic) [Example 146, (±)-1-[7-(2,4-difluorophenyl)-2,3-dihydro-1-benzofuran-2-yl]methanamine], the Ki in experiment [1] was found to be 2.4 nM. Further, on human 5-HT2C receptor, the Emax is 90% and the EC50 is 5 nM.

For the compound `CC(C)NCC1Cc2cccc(-c3c(Cl)cccc3Cl)c2O1` (racemic) [Example 393, (±)-N-{[7-(2,6-dichlorophenyl)-2,3-dihydro-1-benzofuran-2-yl]methyl}propan-2-amine], in experiment [1], the inhibition constant Ki was determined as 21.5 nM. On human 5-HT2C receptor, the maximum response (Emax) came out at 60% and the EC50 was 45 nM.

As for `NCC1Cc2cc(Cl)cc(-c3ccc(Cl)cc3Cl)c2O1` (single isomer, unassigned; (+)) [Example 253, (+)-{[5-chloro-7-(2,4-dichlorophenyl)-2,3-dihydro-1-benzofuran-2-yl]methyl}amine], the inhibition constant Ki in experiment [1] was found to be 8.6 nM. For the same compound, at human 5-HT2C receptor, the EC50 is 251 nM and the “5-HT2C Function Emax (%)” value was 90%.

With `COc1cccc(-c2cc(F)cc3c2OC(CN)C3)c1OC` (racemic) [Example 212, (±)-{[7-(2,3-dimethoxyphenyl)-5-fluoro-2,3-dihydro-1-benzofuran-2-yl]methyl}amine], in experiment [1], the inhibition constant (Ki) was found to be 2.4 nM. For the same compound, on human 5-HT2C receptor, the maximal response (Emax) is 90% and the concentration giving a half-maximal response (EC50) is 11 nM.

Regarding `CNCC1Cc2cc(Cl)cc(-c3cccc(F)c3F)c2O1` (racemic) [Example 463, (±)-{[5-chloro-7-(2,3-difluorophenyl)-2,3-dihydro-1-benzofuran-2-yl]methyl}methylamine], the inhibition constant (Ki) in experiment [1] came out at 21 nM. In addition, on human 5-HT2C receptor, the Emax was determined as 80% and the EC50 was determined as 89 nM.

Turning to `Cc1cc2c(c(-c3ccc(F)cc3)c1)OC(CN)C2` (racemic) [Example 291, (±)-{[7-(4-fluorophenyl)-5-methyl-2,3-dihydro-1-benzofuran-2-yl]methyl}amine], the Ki in experiment [1] turned out to be 0.4 nM. On human 5-HT2C receptor, the Emax worked out at 100% and the half-maximal effective concentration (EC50) was 22 nM.

On to `NCC1Cc2cccc(-c3ccccc3C(F)(F)F)c2O1` (single isomer, unassigned; (-)) [Example 54, (−)-1-{7-[2-(trifluoromethyl)phenyl]-2,3-dihydro-1-benzofuran-2-yl}methanamine], for which the inhibitory constant (Ki) in experiment [1] came out at 0.5 nM. For the same compound, on human 5-HT2C receptor, the maximum response (Emax) is 85% and the EC50 came out at 9 nM.

On to `COc1ccc(-c2cc(C(F)(F)F)cc3c2OC(CN)C3)c(OC)c1` (racemic) [Example 333, (±)-{[7-(2,4-dimethoxyphenyl)-5-(trifluoromethyl)-2,3-dihydro-1-benzofuran-2-yl]methyl}amine], for which, in experiment [1], the inhibition constant Ki turned out to be 13 nM. For the same compound, at human 5-HT2C receptor, the maximal response (Emax) worked out at 90% and the EC50 is 70 nM.

Consider `NCC1Cc2c(cccc2-c2ccccc2)O1` (racemic) [Example 1, (±)-1-(4-phenyl-2,3-dihydro-1-benzofuran-2-yl)methanamine], for which, in experiment [1], the Ki amounted to 43 nM. Further, on human 5-HT2C receptor, the Emax was 90% and the EC50 was found to be 926 nM.

With `CC(C)c1cc2c(c(-c3ccccc3Cl)c1)OC(CN)C2` (racemic) [Example 308, (±)-{[5-isopropyl-7-(2-chlorophenyl)-2,3-dihydro-1-benzofuran-2-yl]methyl}amine], the inhibition constant (Ki) in experiment [1] was found to be 0.9 nM. At human 5-HT2C receptor, the maximal effect (Emax) was found to be 90% and the EC50 was 24 nM.

For the compound `NCC1Cc2cc(F)cc(-c3cccnc3)c2O1` (single isomer, unassigned; (-)) [Example 207, (−)-[(5-fluoro-7-pyridin-3-yl-2,3-dihydro-1-benzofuran-2-yl)methyl]amine], the inhibition constant Ki in experiment [1] was 128 nM. Moreover, at human 5-HT2C receptor, the Emax came to 80% and the EC50 turned out to be 112 nM.

With `COc1cc2c(c(-c3cccc(C)c3C)c1)OC(CN)C2` (racemic) [Example 363, (±)-{[7-(2,3-dimethylphenyl)-5-methoxy-2,3-dihydro-1-benzofuran-2-yl]methyl}amine], the Ki in experiment [1] turned out to be 26 nM. Besides, at human 5-HT2C receptor, the maximum response (Emax) is 70% and the EC50 turned out to be 225 nM.

In the case of `COc1cc2c(c(-c3cc(Cl)ccc3OC)c1)OC(CN)C2` (racemic) [Example 372, (±)-{[7-(5-chloro-2-methoxyphenyl)-5-methoxy-2,3-dihydro-1-benzofuran-2-yl]methyl}amine], the inhibition constant Ki in experiment [1] was 23 nM. Moreover, on human 5-HT2C receptor, the Emax amounted to 80% and the half-maximal effective concentration (EC50) is 224 nM.

On to `COc1ccc(OC)c(-c2cccc3c2OC(CN)C3)c1` (racemic) [Example 162, (±)-{[7-(2,5-dimethoxyphenyl)-2,3-dihydro-1-benzofuran-2-yl]methyl}amine], for which the inhibition constant Ki in experiment [1] amounted to 13 nM. Also, on human 5-HT2C receptor, the Emax is 100% and the concentration giving a half-maximal response (EC50) was 24 nM.

On to `NCC1Cc2cc(F)cc(-c3ccccc3Cl)c2O1` (racemic) [Example 100, (±)-1-[7-(2-chlorophenyl)-5-fluoro-2,3-dihydro-1-benzofuran-2-yl]methanamine], for which the Ki in experiment [1] is 0.2 nM. Further, on human 5-HT2C receptor, the maximal response (Emax) came out at 100% and the EC50 was determined as 120 nM.

Turning to `CC(C)(C)c1cc(Cl)cc2c1OC(CN)C2` (single isomer, unassigned; (+)) [Example 29, (+)-1-(7-tert-butyl-5-chloro-2,3-dihydro-1-benzofuran-2-yl)methanamine], in experiment [1], the inhibitory constant (Ki) is 35 nM. Besides, on human 5-HT2C receptor, the concentration giving a half-maximal response (EC50) was 229 nM and the “5-HT2C Function Emax (%)” value came to 80%.

For `NCC1Cc2cc(-c3ccccc3)cc(-c3ccccc3)c2O1` (racemic) [Example 344, (±)-[(5,7-diphenyl-2,3-dihydro-1-benzofuran-2-yl)methyl]amine], in experiment [1], the Ki worked out at 275 nM. Also, on human 5-HT2C receptor, the maximum response (Emax) was 60% and the EC50 amounted to 2920 nM.

As to `Cc1cccc(C)c1-c1cc(F)cc2c1OC(CN)C2` (single isomer, unassigned; (-)) [Example 229, (−)-{[7-(2,6-dimethylphenyl)-5-fluoro-2,3-dihydro-1-benzofuran-2-yl]methyl}amine], in experiment [1], the inhibition constant (Ki) came to 0.4 nM. At human 5-HT2C receptor, the EC50 was found to be 6 nM and the “5-HT2C Function Emax (%)” value amounted to 100%.

Turning to `Cc1ccc(C)c(-c2cc(F)cc3c2OC(CN)C3)c1` (racemic) [Example 222, (±)-{[7-(2,5-dimethylphenyl)-5-fluoro-2,3-dihydro-1-benzofuran-2-yl]methyl}amine], the Ki in experiment [1] was 18 nM. For the same compound, on human 5-HT2C receptor, the maximum response (Emax) stood at 80% and the concentration for a half-maximal effect (EC50) is 120 nM.
